For data set [1], the system named is chymotrypsin. As to the kind of experiment: chymotrypsin. Particulars: 37°C, up to 120 minutes.
Data set [2] has as its system thrombin. Particulars: cited from earlier work.
Data set [3] relates to thrombin. Particulars: cited from earlier work. The source holds these as a separate data set.
In data set [4] the test system is trypsin. The settings on record: cited from earlier work.
Data set [5] addresses plasma kallikrein. The settings on record: cited from earlier work.

Non-standard residues stand in square brackets, D forms with d. No end group written: not given here.

As to GGSCIDGGRLMCGGS, the cleaved bond result in data set [1] is listed as “methionine-C”.

Take [dF]PRP: the thrombin inhibition entry in data set [2] (concentrations up to 10 µM) is reported as “does not significantly inhibit thrombin”.

The Ki is the equilibrium dissociation constant of an inhibitor or competing ligand from its target. Turning to bivalirudin, the inhibition constant Ki in data set [2] was 2 nM. In addition, in data set [3], the association rate constant was 4e+08 M⁻¹ s⁻¹ and the dissociation rate is 0.8 s⁻¹.

Turning to ω-conotoxin MVIIa, the degradation by trypsin result in data set [4] is given as “degraded”.

Regarding Ecallantide, in data set [5], the Ki was 0.044 nM.

The values are drawn from article PMC3158827 (ACS chemical biology, 2011).
